PubChem BioAssay (NCI)
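How tested: cells in 96-well plates exposed to compound for 48 hours at five concentrations. GI50: concentration for 50% inhibition of growth. The concentration for full growth arrest is given as TGI.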

What was measured:
Test in all cases: NCI tumour cell line growth inhibition, 48 h; in the data active means GI50 below about 0.43 µM; inactive means the rest
HT29 colon = system: HT29 colon
HCC-2998 colon = system: HCC-2998 colon
UACC-62 melanoma = system: UACC-62 melanoma
KM12 colon = system: KM12 colon
OVCAR-5 ovarian = system: OVCAR-5 ovarian
SW-620 colon = system: SW-620 colon
K-562 leukemia = system: K-562 leukemia
NCI-H460 lung = system: NCI-H460 lung
LOX IMVI melanoma = system: LOX IMVI melanoma
SNB-19 CNS = system: SNB-19 CNS
CAKI-1 renal = system: CAKI-1 renal
SK-MEL-2 melanoma = system: SK-MEL-2 melanoma
BT-549 breast = system: BT-549 breast
SF-539 CNS = system: SF-539 CNS
M14 melanoma = system: M14 melanoma
MCF7 breast = system: MCF7 breast
SK-OV-3 ovarian = system: SK-OV-3 ovarian
MDA-MB-468 breast = system: MDA-MB-468 breast
HCT-116 colon = system: HCT-116 colon
U251 CNS = system: U251 CNS
SK-MEL-5 melanoma = system: SK-MEL-5 melanoma
MALME-3M melanoma = system: MALME-3M melanoma
OVCAR-8 ovarian = system: OVCAR-8 ovarian
NCI/ADR-RES ovarian = system: NCI/ADR-RES ovarian
A498 renal = system: A498 renal
MDA-MB-435 = system: MDA-MB-435
HCT-15 colon = system: HCT-15 colon
SF-268 CNS = system: SF-268 CNS
HS 578T breast = system: HS 578T breast
TK-10 renal = system: TK-10 renal
SK-MEL-28 melanoma = system: SK-MEL-28 melanoma
SF-295 CNS = system: SF-295 CNS
PC-3 prostate = system: PC-3 prostate
HOP-62 NSCLC = system: HOP-62 NSCLC
RXF 393 renal = system: RXF 393 renal
CCRF-CEM leukemia = system: CCRF-CEM leukemia
MOLT-4 leukemia = system: MOLT-4 leukemia
COLO 205 colon = system: COLO 205 colon
HOP-92 NSCLC = system: HOP-92 NSCLC
OVCAR-4 ovarian = system: OVCAR-4 ovarian
EKVX NSCLC = system: EKVX NSCLC
NCI-H23 lung = system: NCI-H23 lung
786-0 renal = system: 786-0 renal
DU-145 prostate = system: DU-145 prostate
OVCAR-3 ovarian = system: OVCAR-3 ovarian
SNB-75 CNS = system: SNB-75 CNS
IGROV1 ovarian = system: IGROV1 ovarian
T-47D breast = system: T-47D breast
HL-60(TB) leukemia = system: HL-60(TB) leukemia
SN12C renal = system: SN12C renal
A549 NSCLC = system: A549 NSCLC
NCI-H226 lung = system: NCI-H226 lung
ACHN renal = system: ACHN renal
NCI-H522 lung = system: NCI-H522 lung
RPMI-8226 leukemia = system: RPMI-8226 leukemia
UACC-257 melanoma = system: UACC-257 melanoma

O=C(N/N=C/c1ccc(B(O)O)o1)c1[nH]c2ccc(Br)cc2c1-c1ccccc1
13.5 µM: TGI (NCI-H522 lung)
55.4 µM: TGI (CCRF-CEM leukemia)
52.8 µM: TGI (HOP-92 NSCLC)
41.6 µM: TGI (OVCAR-8 ovarian)
93.6 µM: TGI (HS 578T breast)
37.1 µM: TGI (HL-60(TB) leukemia)
36.6 µM: TGI (HOP-62 NSCLC)
43.5 µM: TGI (SK-MEL-2 melanoma)
33.3 µM: TGI (BT-549 breast)
73.3 µM: TGI (MOLT-4 leukemia)
54.6 µM: TGI (786-0 renal)
24.1 µM: TGI (RXF 393 renal)
90.2 µM: TGI (HCC-2998 colon)
89.7 µM: TGI (SNB-19 CNS)
31.3 µM: TGI (SF-539 CNS)
50.9 µM: TGI (HT29 colon)
67.3 µM: TGI (SK-OV-3 ovarian)
46.6 µM: TGI (COLO 205 colon)
45 µM: TGI (K-562 leukemia)
15.5 µM: TGI (UACC-62 melanoma)
20.6 µM: TGI (SNB-75 CNS)
56.2 µM: TGI (NCI/ADR-RES ovarian)
> 100 µM: TGI (KM12 colon) | TGI (OVCAR-5 ovarian) | TGI (SW-620 colon) | TGI (NCI-H460 lung) | TGI (LOX IMVI melanoma) | TGI (CAKI-1 renal) | TGI (M14 melanoma) | TGI (MCF7 breast) | TGI (HCT-116 colon) | TGI (MALME-3M melanoma) | TGI (A498 renal) | TGI (MDA-MB-435) | TGI (HCT-15 colon) | TGI (SF-268 CNS) | TGI (TK-10 renal) | TGI (SK-MEL-28 melanoma) | TGI (PC-3 prostate) | TGI (OVCAR-4 ovarian) | TGI (EKVX NSCLC) | TGI (NCI-H23 lung) | TGI (DU-145 prostate) | TGI (OVCAR-3 ovarian) | TGI (IGROV1 ovarian) | TGI (T-47D breast) | TGI (SN12C renal) | TGI (A549 NSCLC) | TGI (NCI-H226 lung) | TGI (ACHN renal) | TGI (RPMI-8226 leukemia) | TGI (UACC-257 melanoma)
57.2 µM: TGI (MDA-MB-468 breast)
43.1 µM: TGI (SF-295 CNS)
35.5 µM: TGI (SK-MEL-5 melanoma)
44.4 µM: TGI (U251 CNS)
inactive: GI50 (HT29 colon) 20.6 µM | GI50 (HCC-2998 colon) 25.4 µM | GI50 (UACC-62 melanoma) 3.24 µM | GI50 (KM12 colon) 19.2 µM | GI50 (OVCAR-5 ovarian) 27.5 µM | GI50 (SW-620 colon) 35.7 µM | GI50 (K-562 leukemia) 5.46 µM | GI50 (NCI-H460 lung) 29.1 µM | GI50 (LOX IMVI melanoma) 18.1 µM | GI50 (SNB-19 CNS) 21.1 µM | GI50 (CAKI-1 renal) 30.8 µM | GI50 (SK-MEL-2 melanoma) 13.5 µM | GI50 (BT-549 breast) 12 µM | GI50 (SF-539 CNS) 13 µM | GI50 (M14 melanoma) 19 µM | GI50 (MCF7 breast) 24.7 µM | GI50 (SK-OV-3 ovarian) 21.8 µM | GI50 (MDA-MB-468 breast) 19.3 µM | GI50 (HCT-116 colon) 16.9 µM | GI50 (U251 CNS) 16.5 µM | GI50 (SK-MEL-5 melanoma) 14.7 µM | GI50 (MALME-3M melanoma) 26.9 µM | GI50 (OVCAR-8 ovarian) 17.7 µM | GI50 (NCI/ADR-RES ovarian) 12.2 µM | GI50 (A498 renal) 23.3 µM | GI50 (MDA-MB-435) 3.66 µM | GI50 (HCT-15 colon) 22.6 µM | GI50 (SF-268 CNS) 16.1 µM | GI50 (HS 578T breast) 8.91 µM | GI50 (TK-10 renal) 37.1 µM | GI50 (SK-MEL-28 melanoma) 10.7 µM | GI50 (SF-295 CNS) 13.1 µM | GI50 (PC-3 prostate) 12.9 µM | GI50 (HOP-62 NSCLC) 11.9 µM | GI50 (RXF 393 renal) 5.38 µM | GI50 (CCRF-CEM leukemia) 17.5 µM | GI50 (MOLT-4 leukemia) 20.3 µM | GI50 (COLO 205 colon) 19.8 µM | GI50 (HOP-92 NSCLC) 11.7 µM | GI50 (OVCAR-4 ovarian) 47 µM | GI50 (EKVX NSCLC) 28.6 µM | GI50 (NCI-H23 lung) 26.5 µM | GI50 (786-0 renal) 17.9 µM | GI50 (DU-145 prostate) 32.3 µM | GI50 (OVCAR-3 ovarian) 14.8 µM | GI50 (SNB-75 CNS) 3.26 µM | GI50 (IGROV1 ovarian) 25.7 µM | GI50 (T-47D breast) 21.4 µM | GI50 (HL-60(TB) leukemia) 13 µM | GI50 (SN12C renal) 24.4 µM | GI50 (A549 NSCLC) 27.1 µM | GI50 (NCI-H226 lung) 45.8 µM | GI50 (ACHN renal) 29.6 µM | GI50 (NCI-H522 lung) 2.94 µM | GI50 (RPMI-8226 leukemia) 29.5 µM | GI50 (UACC-257 melanoma) 19.1 µM
